In ChEMBL document CHEMBL1201862, “PubChem BioAssay data set” (2004):
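A five-concentration, 48-hour dose response in 96-well plates underlies each endpoint, interpolated linearly between surrounding concentrations. The concentration for 50% growth inhibition is given as GI50.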 Active and inactive are the calls of the source. Rule as the data show it: active = GI50 up to about 1.1 µM and inactive = higher.

Legend:
Test in all cases: NCI tumour cell line growth inhibition, 48 h
TK-10 = tested on: TK-10
KM-20L2 = tested on: KM-20L2
NCI-H522 = tested on: NCI-H522
ACHN = tested on: ACHN
DMS-114 = tested on: DMS-114
OVCAR-8 = tested on: OVCAR-8
LOX IMVI = tested on: LOX IMVI
HCT-15 = tested on: HCT-15
SK-MEL-28 = tested on: SK-MEL-28
RPMI-8226 = tested on: RPMI-8226
SF-295 = tested on: SF-295
MOLT-4 = tested on: MOLT-4
HOP-62 = tested on: HOP-62
UACC-62 = tested on: UACC-62
HOP-18 = tested on: HOP-18
LXFL 529 = tested on: LXFL 529
HT-29 = tested on: HT-29
SNB-78 = tested on: SNB-78
HOP-92 = tested on: HOP-92
SNB-75 = tested on: SNB-75
RXF 393 = tested on: RXF 393
SF-539 = tested on: SF-539
M19-MEL = tested on: M19-MEL
HCT-116 = tested on: HCT-116
OVCAR-5 = tested on: OVCAR-5
U-251 = tested on: U-251
SK-OV-3 = tested on: SK-OV-3
DMS-273 = tested on: DMS-273
M14 = tested on: M14
COLO 205 = tested on: COLO 205
SN12C = tested on: SN12C
XF498 = tested on: XF498
HL-60 = tested on: HL-60
OVCAR-3 = tested on: OVCAR-3
IGROV-1 = tested on: IGROV-1
CAKI-1 = tested on: CAKI-1
UO-31 = tested on: UO-31
NCI-H23 = tested on: NCI-H23
A498 = tested on: A498
UACC-257 = tested on: UACC-257
786-0 = tested on: 786-0
SW-620 = tested on: SW-620
CCRF-CEM = tested on: CCRF-CEM
K562 = tested on: K562
SR = tested on: SR
EKVX = tested on: EKVX
NCI-H226 = tested on: NCI-H226
SF-268 = tested on: SF-268
KM12 = tested on: KM12
SK-MEL-2 = tested on: SK-MEL-2
DLD-1 = tested on: DLD-1
Malme-3M = tested on: Malme-3M
NCI-H460 = tested on: NCI-H460
A549 = tested on: A549
HCC 2998 = tested on: HCC 2998
OVCAR-4 = tested on: OVCAR-4
SNB-19 = tested on: SNB-19

**Q.** Which GI50 (TK-10) does the source give for `O=C1CCCC/C(=C/c2ccccc2)N1` here?
**A.** > 100 µM (inactive)

**Q.** And the GI50 (KM-20L2)?
**A.** > 100 µM (inactive)

**Q.** What about the GI50 (NCI-H522) of the same molecule?
**A.** > 100 µM (inactive)

**Q.** And the GI50 (ACHN)?
**A.** > 100 µM (inactive)

**Q.** And the GI50 (DMS-114)?
**A.** 50.4 µM (inactive)

**Q.** And the GI50 (OVCAR-8)?
**A.** > 100 µM (inactive)

**Q.** And the GI50 (LOX IMVI)?
**A.** > 100 µM (inactive)

**Q.** And the GI50 (HCT-15)?
**A.** > 100 µM

**Q.** What about the GI50 (SK-MEL-28) of the same molecule?
**A.** > 100 µM (inactive)

**Q.** What about the GI50 (RPMI-8226) of the same molecule?
**A.** > 100 µM (inactive)

**Q.** And the GI50 (SF-295)?
**A.** > 100 µM (inactive)

**Q.** And the GI50 (MOLT-4)?
**A.** > 100 µM (inactive)

**Q.** And the GI50 (HOP-62)?
**A.** > 100 µM (inactive)

**Q.** And the GI50 (UACC-62)?
**A.** > 100 µM (inactive)

**Q.** What about the GI50 (HOP-18) of the same molecule?
**A.** > 100 µM (inactive)

**Q.** And the GI50 (LXFL 529)?
**A.** > 100 µM (inactive)

**Q.** What about the GI50 (HT-29) of the same molecule?
**A.** > 100 µM (inactive)

**Q.** What about the GI50 (SNB-78) of the same molecule?
**A.** > 100 µM (inactive)

**Q.** What about the GI50 (HOP-92) of the same molecule?
**A.** > 100 µM (inactive)

**Q.** And the GI50 (SNB-75)?
**A.** 56.6 µM (inactive)

**Q.** What about the GI50 (RXF 393) of the same molecule?
**A.** > 100 µM (inactive)

**Q.** And the GI50 (SF-539)?
**A.** > 100 µM (inactive)

**Q.** What about the GI50 (M19-MEL) of the same molecule?
**A.** > 100 µM (inactive)

**Q.** And the GI50 (HCT-116)?
**A.** > 100 µM (inactive)

**Q.** And the GI50 (OVCAR-5)?
**A.** > 100 µM (inactive)

**Q.** And the GI50 (U-251)?
**A.** > 100 µM (inactive)

**Q.** What about the GI50 (SK-OV-3) of the same molecule?
**A.** > 100 µM (inactive)

**Q.** What about the GI50 (DMS-273) of the same molecule?
**A.** > 100 µM (inactive)

**Q.** And the GI50 (M14)?
**A.** > 100 µM (inactive)

**Q.** What about the GI50 (COLO 205) of the same molecule?
**A.** > 100 µM (inactive)

**Q.** What about the GI50 (SN12C) of the same molecule?
**A.** > 100 µM (inactive)

**Q.** What about the GI50 (XF498) of the same molecule?
**A.** > 100 µM (inactive)

**Q.** What about the GI50 (HL-60) of the same molecule?
**A.** > 100 µM (inactive)

**Q.** What about the GI50 (OVCAR-3) of the same molecule?
**A.** > 100 µM (inactive)

**Q.** What about the GI50 (IGROV-1) of the same molecule?
**A.** > 100 µM (inactive)

**Q.** What about the GI50 (CAKI-1) of the same molecule?
**A.** > 100 µM (inactive)

**Q.** What about the GI50 (UO-31) of the same molecule?
**A.** > 100 µM (inactive)

**Q.** And the GI50 (NCI-H23)?
**A.** > 100 µM (inactive)

**Q.** And the GI50 (A498)?
**A.** > 100 µM (inactive)

**Q.** What about the GI50 (UACC-257) of the same molecule?
**A.** > 100 µM (inactive)

**Q.** What about the GI50 (786-0) of the same molecule?
**A.** > 100 µM (inactive)

**Q.** What about the GI50 (SW-620) of the same molecule?
**A.** > 100 µM (inactive)

**Q.** What about the GI50 (CCRF-CEM) of the same molecule?
**A.** > 100 µM (inactive)

**Q.** And the GI50 (K562)?
**A.** > 100 µM (inactive)

**Q.** What about the GI50 (SR) of the same molecule?
**A.** > 100 µM (inactive)

**Q.** And the GI50 (EKVX)?
**A.** > 100 µM (inactive)

**Q.** What about the GI50 (NCI-H226) of the same molecule?
**A.** > 100 µM (inactive)

**Q.** And the GI50 (SF-268)?
**A.** > 100 µM (inactive)

**Q.** What about the GI50 (KM12) of the same molecule?
**A.** > 100 µM (inactive)

**Q.** What about the GI50 (SK-MEL-2) of the same molecule?
**A.** > 100 µM (inactive)

**Q.** What about the GI50 (DLD-1) of the same molecule?
**A.** > 100 µM (inactive)

**Q.** What about the GI50 (Malme-3M) of the same molecule?
**A.** > 100 µM (inactive)

**Q.** What about the GI50 (NCI-H460) of the same molecule?
**A.** > 100 µM (inactive)

**Q.** What about the GI50 (A549) of the same molecule?
**A.** > 100 µM (inactive)

**Q.** What about the GI50 (HCC 2998) of the same molecule?
**A.** > 100 µM (inactive)

**Q.** What about the GI50 (OVCAR-4) of the same molecule?
**A.** > 100 µM (inactive)

**Q.** For `O=C(Nc1ccc(Br)cc1)C(=O)C(C(=O)c1ccc(Cl)c(Cl)c1)C1OC(=O)c2ccccc21` (stereo unspecified), which GI50 (TK-10) is on record?
**A.** 20.2 µM (inactive)

**Q.** What about the GI50 (KM-20L2) of the same molecule?
**A.** 33 µM (inactive)

**Q.** What about the GI50 (NCI-H522) of the same molecule?
**A.** 18.3 µM (inactive)

**Q.** What about the GI50 (ACHN) of the same molecule?
**A.** 16.3 µM (inactive)

**Q.** What about the GI50 (DMS-114) of the same molecule?
**A.** 10.9 µM (inactive)

**Q.** What about the GI50 (OVCAR-8) of the same molecule?
**A.** 12.3 µM (inactive)

**Q.** And the GI50 (LOX IMVI)?
**A.** 17.6 µM (inactive)

**Q.** And the GI50 (HCT-15)?
**A.** 20.9 µM

**Q.** What about the GI50 (SK-MEL-28) of the same molecule?
**A.** 13.7 µM (inactive)

**Q.** And the GI50 (RPMI-8226)?
**A.** 39.7 µM (inactive)

**Q.** And the GI50 (SF-295)?
**A.** 15.2 µM (inactive)

**Q.** What about the GI50 (MOLT-4) of the same molecule?
**A.** 10.4 µM (inactive)

**Q.** And the GI50 (HOP-62)?
**A.** 15.2 µM (inactive)

**Q.** What about the GI50 (UACC-62) of the same molecule?
**A.** 13.4 µM (inactive)

**Q.** What about the GI50 (HOP-18) of the same molecule?
**A.** 14.4 µM (inactive)

**Q.** And the GI50 (LXFL 529)?
**A.** 9.98 µM (inactive)

**Q.** What about the GI50 (SNB-19) of the same molecule?
**A.** 16.7 µM (inactive)

**Q.** And the GI50 (HT-29)?
**A.** 21.3 µM (inactive)

**Q.** And the GI50 (SNB-78)?
**A.** 17.1 µM (inactive)

**Q.** And the GI50 (HOP-92)?
**A.** 15 µM (inactive)

**Q.** And the GI50 (SNB-75)?
**A.** 20.8 µM (inactive)

**Q.** And the GI50 (RXF 393)?
**A.** 3.5 µM (inactive)

**Q.** And the GI50 (M19-MEL)?
**A.** 15 µM (inactive)

**Q.** And the GI50 (HCT-116)?
**A.** 12.5 µM (inactive)

**Q.** And the GI50 (OVCAR-5)?
**A.** 17.3 µM (inactive)

**Q.** And the GI50 (U-251)?
**A.** 8.97 µM (inactive)

**Q.** And the GI50 (SK-OV-3)?
**A.** 35.1 µM (inactive)

**Q.** What about the GI50 (DMS-273) of the same molecule?
**A.** 19.1 µM (inactive)

**Q.** And the GI50 (M14)?
**A.** 15.4 µM (inactive)

**Q.** What about the GI50 (COLO 205) of the same molecule?
**A.** 16.4 µM (inactive)

**Q.** What about the GI50 (SN12C) of the same molecule?
**A.** 20.2 µM (inactive)

**Q.** What about the GI50 (XF498) of the same molecule?
**A.** 13.8 µM (inactive)

**Q.** And the GI50 (HL-60)?
**A.** 17.2 µM (inactive)

**Q.** What about the GI50 (OVCAR-3) of the same molecule?
**A.** 18.5 µM (inactive)

**Q.** And the GI50 (IGROV-1)?
**A.** 18.5 µM (inactive)

**Q.** What about the GI50 (CAKI-1) of the same molecule?
**A.** 14.4 µM (inactive)

**Q.** And the GI50 (UO-31)?
**A.** 18.5 µM (inactive)

**Q.** What about the GI50 (NCI-H23) of the same molecule?
**A.** 13.9 µM (inactive)

**Q.** What about the GI50 (A498) of the same molecule?
**A.** 16.2 µM (inactive)

**Q.** What about the GI50 (UACC-257) of the same molecule?
**A.** 16 µM (inactive)

**Q.** What about the GI50 (786-0) of the same molecule?
**A.** 15 µM (inactive)

**Q.** And the GI50 (SW-620)?
**A.** 14 µM (inactive)

**Q.** And the GI50 (CCRF-CEM)?
**A.** 10 µM (inactive)

**Q.** What about the GI50 (K562) of the same molecule?
**A.** 12.5 µM (inactive)

**Q.** What about the GI50 (SR) of the same molecule?
**A.** 17.3 µM (inactive)

**Q.** What about the GI50 (EKVX) of the same molecule?
**A.** 28.8 µM (inactive)

**Q.** What about the GI50 (NCI-H226) of the same molecule?
**A.** 4.56 µM (inactive)

**Q.** What about the GI50 (SF-268) of the same molecule?
**A.** 4.99 µM (inactive)

**Q.** And the GI50 (KM12)?
**A.** 16.6 µM (inactive)

**Q.** And the GI50 (DLD-1)?
**A.** 18.3 µM (inactive)

**Q.** What about the GI50 (Malme-3M) of the same molecule?
**A.** 10.4 µM (inactive)

**Q.** And the GI50 (NCI-H460)?
**A.** 15.1 µM (inactive)

**Q.** And the GI50 (A549)?
**A.** 16.4 µM (inactive)

**Q.** And the GI50 (HCC 2998)?
**A.** 14.6 µM (inactive)

**Q.** And the GI50 (OVCAR-4)?
**A.** 16.3 µM (inactive)
